SMILES strings stand for the structures. Values joined by “and” are separate entries in the source; they are usually repeats but may differ in a detail not shown here. Equal entries are not always repeated. Positions of bridges follow the written chain, without caps; N, C: chain ends. Non-standard residues stand in square brackets, D forms with d. Residues, ends and D or L forms follow the SMILES beside them. *: point of attachment. Ileψ(thiazoline)Cys = CC[C@H](C)[C@H](N)C1=N[C@H](C(=O)*)CS1; dOrn = NCCC[C@@H](N)C(=O)O

The subject of one assay is Clostridium perfringens. The format is in vivo, broiler chicks.
Assay [1] is described as follows: TNBS-induced colitis, colon length and weight. Particulars: Group 2, prednisolone 1 mg/kg/dose t.i.d.; day 5; individual animals.
Assay [2] can be described thus: TNBS-induced colitis, histopathology of colon. As to conditions: day 5.
The nature of assay [3]: TNBS-induced colitis, video endoscopy colitis score.
A short description of assay [4]: TNBS-induced colitis, body weight.
The mark [5] stands for this setting: Group 2, prednisolone 1 mg/kg/dose t.i.d., mean per animal, scale 0-4 (Table 3).
Where [6] appears, read: Group 2, prednisolone 1 mg/kg/dose t.i.d., individual animals, scale 0-4 (Table 2).
[7] abbreviates: Group 2, prednisolone 1 mg/kg/dose t.i.d. p.o. + TNBS, individual animals.

Consider `CC[C@H](C)[C@H](N)C1=N[C@H](C(=O)N[C@@H](CC(C)C)C(=O)N[C@H](CCC(=O)O)C(=O)N[C@H](C(=O)N[C@H]2CCCCNC(=O)[C@H](CC(N)=O)NC(=O)[C@@H](CC(=O)O)NC(=O)[C@H](Cc3cnc[nH]3)NC(=O)[C@@H](Cc3ccccc3)NC(=O)[C@H]([C@@H](C)CC)NC(=O)[C@@H](CCCN)NC2=O)[C@@H](C)CC)CS1` [BMD, bacitracin] ({Ileψ(thiazoline)Cys}-L[dE]IK[dOrn]I[dF]H[dD]N; lactam 4-C), for which, in the assay on Clostridium perfringens (BMD positive control in water, P<0.05, meaning of figure unclear), the “necrotic enteritis (NE) of the GI tract, figure given for BMD” value is given as 93%. For the same compound, the “mortality normalized to untreated (100%)” value in the assay with Clostridium perfringens (total aggregate deaths up to and including day 14) was found to be 45%.
For the compound `C[C@]12C=CC(=O)C=C1CC[C@@H]1[C@@H]2[C@@H](O)C[C@@]2(C)[C@H]1CC[C@]2(O)C(=O)CO` [Prednisolone], in assay [1], the “Colon Length” value was 8 (3×) and 6.4 and 8.5 and 7.2 (2×) and 7 and 6.5 and 7.5; the “Colon Weight” value is 0.334 and 0.344 and 0.392 and 0.386 and 0.248 and 0.276 and 0.24 and 0.318 and 0.35 and 0.224. In assay [2] (setting [5]), the “Histology Scores Edema” value is 1.20 (4×) and 0.83 (2×) and 0.50 and 0.67 and 1.40 and 0.80; the “Histology Scores Inflam” value is 1.60 and 1.40 and 1.00 (3×) and 0.83 (2×) and 0.33 and 0.67 and 0.80; the “Histology Scores Necrosis” value is 1.00 and 0.80 (3×) and 0.40 and 0.67 and 0.00 and 0.33 and 0.50 and 0.60. Moreover, the “edema scores vs vehicle control” value in assay [2] (prednisolone, p=0.004) was “significantly lower”. In addition, the “sum pathology scores vs vehicle control” value in assay [2] (prednisolone, p=0.007) is listed as “significantly lower”. In assay [3] (setting [6]), the “Endo Score Day 3” value was 2 (4×) and 1 (2×) and 3 and 4 (3×); the “Endo Score Day 5” value was 3 (3×) and 2 (5×) and 4 and 1. The “colitis score of representative endoscopy image” value in assay [3] (day 5, prednisolone, scale 0-4, vehicle 3) came to 2. The “mean colitis scores vs vehicle control” value in assay [3] (prednisolone 1 mg/kg/dose t.i.d., day 3 p=0.010, day 5 p=0.027) was “significantly reduced mean colitis scores”. In assay [4] (setting [7]), the “Animal Weights Day 0” value was 23.09 and 25.03 and 23.28 and 23.97 and 22.64 and 24.58 and 24.61 and 25.53 and 25.1 and 24.95; the “Animal Weights Day 1” value was 20.19 and 21.15 and 20.41 and 20.78 and 20.62 and 21.89 and 22.21 and 22.35 (2×) and 22.44; the “Animal Weights Day 2” value was 19.12 and 20.17 and 19.33 and 19.52 and 20.33 and 20.83 and 22.81 and 21.35 and 22.46 and 23.66; the “Animal Weights Day 3” value is 18.77 and 19.45 and 18.6 and 19.09 and 22.59 and 21.38 and 23.44 and 21.24 and 23.92 and 24.77. In assay [4] (setting [7]), the “Animal Weights Day 4” value is 18.36 and 19.11 and 19.32 and 18.56 and 22.41 and 21.65 and 23.51 and 22.09 and 23.48 and 23.97; the “Animal Weights Day 5” value is 19.28 and 20.1 and 21.49 and 19.89 and 22.48 and 22.05 and 24.03 and 23.91 and 24.24 and 24.3; the “Animal Weights Day −1” value is 23.94 and 25.76 and 24.35 and 24.86 and 24.02 and 25.97 and 26.64 and 26.78 and 27.15 and 27.02. The “average weight loss from starting weight” value in assay [4] (day 2, prednisolone 1 mg/kg/dose t.i.d. p.o.) turned out to be 18.3%.
